Data as given in the NIST ThermoML archive (doi:10.1021/acs.jced.5b00369).

Test: relative permittivity at zero frequency (dimensionless); xn = mol fraction of the nth substance listed
Settings: 298.15 K, 101 kPa, Liquid

CCC[N+](=O)[O-] [1-nitropropane] + C1CCCCC1
two-cell dielectric cell
Settings | relative permittivity at zero frequency
x1 = 0.003184 | 2.05488
x1 = 0.006527 | 2.09539
x1 = 0.01302 | 2.1734
x1 = 0.01942 | 2.24959
x1 = 0.02574 | 2.3244
x1 = 0.02693 | 2.33815
x1 = 0.02818 | 2.3525
x1 = 0.03015 | 2.37603
x1 = 0.03648 | 2.4508
x1 = 0.04272 | 2.52479
x1 = 0.04887 | 2.59808
x1 = 0.05327 | 2.64994
x1 = 0.05626 | 2.68544
x1 = 0.0594 | 2.72327
x1 = 0.06549 | 2.79734
x1 = 0.07152 | 2.87045
x1 = 0.07893 | 2.96124

CCC[N+](=O)[O-] [1-nitropropane] + Cc1ccc(C)cc1
two-cell dielectric cell
Settings | relative permittivity at zero frequency
x1 = 0.005128 | 2.31627
x1 = 0.007441 | 2.34224
x1 = 0.01482 | 2.4248
x1 = 0.0221 | 2.50652
x1 = 0.02927 | 2.58754
x1 = 0.03246 | 2.62349
x1 = 0.03388 | 2.63942
x1 = 0.03604 | 2.66416
x1 = 0.03819 | 2.68861
x1 = 0.04527 | 2.77022
x1 = 0.05226 | 2.85114
x1 = 0.05913 | 2.93159

CCC[N+](=O)[O-] [1-nitropropane] + ClC(Cl)(Cl)Cl
two-cell dielectric cell
Settings | relative permittivity at zero frequency
x1 = 0.002869 | 2.27091
x1 = 0.005861 | 2.3147
x1 = 0.01167 | 2.39918
x1 = 0.01742 | 2.48214
x1 = 0.0231 | 2.56405
x1 = 0.0253 | 2.59588
x1 = 0.02987 | 2.66163
x1 = 0.03553 | 2.74365
x1 = 0.04122 | 2.82491
x1 = 0.04993 | 2.95383
x1 = 0.05263 | 2.99295
x1 = 0.05816 | 3.07483
x1 = 0.06363 | 3.15625

CC(C)[N+](=O)[O-] [2-nitropropane] + C1CCCCC1
two-terminal dielectric cell
Settings | relative permittivity at zero frequency
x1 = 0.001188 | 2.0322
x1 = 0.003139 | 2.0568
x1 = 0.006442 | 2.09876
x1 = 0.009592 | 2.13855
x1 = 0.01286 | 2.18001
x1 = 0.01918 | 2.26067
x1 = 0.02225 | 2.29974
x1 = 0.0266 | 2.35434
x1 = 0.031 | 2.41041
x1 = 0.03475 | 2.45922
x1 = 0.04093 | 2.54037
x1 = 0.04703 | 2.62139
x1 = 0.05035 | 2.66577
x1 = 0.05259 | 2.69578
x1 = 0.05527 | 2.7322
x1 = 0.05838 | 2.77444
x1 = 0.06441 | 2.857
x1 = 0.07038 | 2.93937

CC(C)[N+](=O)[O-] [2-nitropropane] + CC(C)C(C)C
two-terminal dielectric cell
Settings | relative permittivity at zero frequency
x1 = 0.003786 | 1.92648
x1 = 0.007756 | 1.96704
x1 = 0.01545 | 2.04621
x1 = 0.02302 | 2.12477
x1 = 0.03047 | 2.20279
x1 = 0.03298 | 2.22897
x1 = 0.03446 | 2.24427
x1 = 0.03679 | 2.26913
x1 = 0.04419 | 2.34842
x1 = 0.0515 | 2.42769
x1 = 0.05867 | 2.50669
x1 = 0.06479 | 2.5748
x1 = 0.06604 | 2.58924
x1 = 0.06819 | 2.61329
x1 = 0.07183 | 2.65458
x1 = 0.07889 | 2.73569
x1 = 0.08584 | 2.81657
x1 = 0.09268 | 2.89729

CC(C)[N+](=O)[O-] [2-nitropropane] + Cc1ccc(C)cc1
two-terminal dielectric cell
Settings | relative permittivity at zero frequency
x1 = 0.005471 | 2.32313
x1 = 0.007307 | 2.34454
x1 = 0.01457 | 2.42922
x1 = 0.02174 | 2.51328
x1 = 0.02879 | 2.59677
x1 = 0.03194 | 2.63439
x1 = 0.03336 | 2.65058
x1 = 0.03555 | 2.67711
x1 = 0.04256 | 2.76165
x1 = 0.04948 | 2.84581
x1 = 0.05628 | 2.92956
x1 = 0.06235 | 3.00461

CC(C)[N+](=O)[O-] [2-nitropropane] + ClC(Cl)(Cl)Cl
two-terminal dielectric cell
Settings | relative permittivity at zero frequency
x1 = 0.001006 | 2.24531
x1 = 0.002745 | 2.27181
x1 = 0.00569 | 2.31696
x1 = 0.01141 | 2.40482
x1 = 0.01707 | 2.49201
x1 = 0.02266 | 2.57869
x1 = 0.02488 | 2.61322
x1 = 0.02599 | 2.62967
x1 = 0.02803 | 2.6614
x1 = 0.03078 | 2.70432
x1 = 0.03634 | 2.79196
x1 = 0.04183 | 2.87937
x1 = 0.04726 | 2.9666

CC[N+](=O)[O-] [nitroethane] + C1CCCCC1
two-terminal dielectric cell
Settings | relative permittivity at zero frequency
x1 = 0.003987 | 2.0631
x1 = 0.008153 | 2.11122
x1 = 0.01622 | 2.20858
x1 = 0.02416 | 2.2932
x1 = 0.03312 | 2.3893
x1 = 0.0371 | 2.43784
x1 = 0.04487 | 2.5254
x1 = 0.05252 | 2.6119
x1 = 0.06004 | 2.69759
x1 = 0.06369 | 2.73934
